A short description of one data set: Solubility in water. The data set is classed as physicochemical. The procedure:
The solubility in water of compounds of the present invention was determined by shaking the compounds in water for one hour at room temperature followed by filtration and determination of the concentration of the compound in the filtrate by HPLC. […]

For data set [1], the system named is human lung cancer tumour xenograft. The following applies: cited from earlier work.
Another data set concerns human tumour cells. The following applies: nude mice transplanted with human tumour cells, also paclitaxel-resistant tumour cells; cited from earlier work.
Data set [2] deals with human lung and breast cancer cell lines. The following applies: cited from earlier work.
The test system of data set [3] is normal human endothelial cells. The following applies: cited from earlier work.

Values after ≈ are worked out from the molar mass of the structure shown.

The solubility is how much of the substance goes into solution per volume.

In the data set “Solubility in water”, `COCCOCCOCCOCC(=O)OC[n+]1ccc(NC(=NC#N)NCCCCCCOc2ccc(Cl)cc2)cc1.[Cl-]` [Example 8, 1-[2-(2-(2-Methoxyethoxy)-ethoxy)-ethoxy-acetoxymethyl]-4-[N′-cyano-N″-(6-(4-chlorophenoxy)-hexyl)-N-guanidino]-pyridinium chloride] showed a Solubility in water above 50 mg/mL.

With `COCCOCCOCCOCCOC(=O)OC[n+]1ccc(NC(=NC#N)NCCCCCCOc2ccc(Cl)cc2)cc1.[Cl-]` [Example 9, 1-[2-(2-(2-(2-Methoxyethoxy)-ethoxy)-ethoxy)-ethoxy-carbonyloxymethyl]-4-[N′-cyano-N″-(6-(4-chlorophenoxy)-hexyl)-N-guanidino]-pyridinium chloride], in the data set “Solubility in water”, the Solubility in water was above 50 mg/mL.

With `N#CNC(=Nc1ccncc1)NCCCCCCOc1ccc(Cl)cc1` [N-(6-(4-chlorophenoxy)-hexyl)-N′-cyano-N″-(4-pyridyl)-guanidine], the “antitumour activity in the nude mouse model” value in data set [1] is given as “potent antitumour activity”. In addition, in the data set with human tumour cells, the “antitumour activity in vivo” value is recorded as “substantial antitumour activity”. Besides, in data set [2], the “antiproliferative activity in vitro” value is reported as “high antiproliferative activity”. For the same molecule, the solubility at 1 h in the data set “Solubility in water” (thermodynamic from solid, shaken in water for one hour at room temperature, filtration, filtrate by HPLC) is 0.0002 mg/mL (≈ 0.538 µM). Further, in “Solubility in water” (water), the “solubility (in words)” value is “for all practical purposes insoluble”. Besides, the “antiproliferative activity on normal human endothelial cells” value in data set [3] is “considerably less antiproliferative activity”.
